Reference: patent publication US6518401B2, “Tumor necrosis factor stimulated gene 6 (TSG-6) protein” (New York University, priority 1991, dated 2003)

Assays:
TSG-12 mRNA = experiment: Northern blot analysis of TSG mRNA levels in FS-4 cells; format: cell-based, human; conditions: growth arrested FS-4 cells, 2 h; TNF 20 ng/ml, CHX 10 ug/ml, IFN-β 500 U/ml, IFN-γ 100 U/ml, IL-1-α 1 ng/ml, EGF 25 ng/ml, TGF-β 2 ng/ml, poly(I).poly(C) 50 ug/ml, TPA 100 ng/ml, A23187 1 uM, forskolin 10 uM, dBcAMP 100 uM, IBMX 100 uM
Description: (§1) The human diploid FS-4 foreskin fibroblast cell line (Vilcek, J. et al, Proc. Natl. Acad. Sci. USA 70:3909-3913 (1973)) was used at passage level 15 in all experiments. FS-4 cells were grown in Eagle minimal essential medium (E-MEM) supplemented with 6 mM HEPES, 3 mM Tricine, 50 μg/ml gentamicin, and 5% heat inactivated (56° C., 30 min) fetal bovine serum (FBS; GIBCO Laboratories, Grand Island, N.Y.). For experiments, 4×10^6 cells were seeded in 175 cm^2 Falcon flasks, incubated at 37° C., and allowed to grow to confluence over 6 days. The confluent monolayers were washed once with phosphate buffered saline and replenished with E-MEM containing […] FBS. The cultures were incubated in this medium for another 72 h at 37° C. to let the cells become quiescent and then treated with the appropriate agents, as specified herein.
(§2) Cytoplasmic RNA was fractionated on a 1% agarose gel containing formaldehyde and blotted onto Zeta-probe blotting membranes (Bio-Rad Laboratories, Richmond, Calif.). Cytoplasmic RNA was loaded at 10 μg/lane. Prehybridization and hybridization of Northern blots were performed as described (Lin, J.-X. et al, supra). Filters were probed with 32P-labeled cDNA insert from recombinant M13 clones and/or with 32P-labeled internal reference pHe7 insert. Northern blots were quantified with a laser densitometer.
(§3) The increase in mRNA levels ranged from about 3-fold (TSG-21) to over 100-fold (TSG-6 and TSG-8).
(§4) Table 3 provides a summary of a large number of experiments in which levels of mRNAs corresponding to the 8 distinct TSG cDNAs were determined in FS-4 cells exposed to various agents by Northern blot analysis. Three of the mRNAs (corresponding to TSG-8, TSG-12 and TSG-14) were inducible by the protein synthesis inhibitor, cycloheximide (CHX). […] In contrast, induction of the remaining 3 mRNAs by TNF was inhibited or reduced in the presence of CHX. Five of the mRNAs were inducible by IFN-β, but only two of these responded to […]. Simultaneous treatment with IFN-β reduced inducibility of TSG-1 (=IL-8) mRNA by TNF, but increased the inducibility of TSG-6 and TSG-37 mRNAs. All mRNAs were inducible by IL-1 and by the doublestranded RNA poly(I)-poly(C) or the phorbol ester 12-O-tetradecanoyl phorbol 13-acetate (TPA), but the efficiency of induction by these agents varied. Epidermal growth factor (EGF) was moderately efficient in increasing TSG-21 (=collagenase) and TSG-27 (=stromelysin) mRNA levels, and weakly stimulated several other mRNAs. PDGF and transforming growth factor-β (TGF-β) were only weakly effective, as were dibutyryl cyclic AMP (dBcAMP) and the phosphodiesterase inhibitor, isobutyl methyl xanthine (IBMX).

TSG-6 mRNA = experiment: as above; format: cell-based, human; conditions: growth arrested FS-4 cells, 2 h; TNF 20 ng/ml, CHX 10 ug/ml, IFN-β 500 U/ml, IFN-γ 100 U/ml, IL-1-α 1 ng/ml, EGF 25 ng/ml, TGF-β 2 ng/ml, poly(I).poly(C) 50 ug/ml, TPA 100 ng/ml, A23187 1 uM, forskolin 10 uM, dBcAMP 100 uM, IBMX 100 uM
Description: as §1, §2, §3, §4

TSG-14 mRNA = experiment: as above; format: cell-based, human; conditions: growth arrested FS-4 cells, 2 h; TNF 20 ng/ml, CHX 10 ug/ml, IFN-β 500 U/ml, IFN-γ 100 U/ml, IL-1-α 1 ng/ml, EGF 25 ng/ml, TGF-β 2 ng/ml, poly(I).poly(C) 50 ug/ml, TPA 100 ng/ml, A23187 1 uM, forskolin 10 uM, dBcAMP 100 uM, IBMX 100 uM
Description: as §1, §2, §3, §4

TSG-1 (IL-8) mRNA = experiment: as above; format: cell-based, human; conditions: growth arrested FS-4 cells, 2 h; TNF 20 ng/ml, CHX 10 ug/ml, IFN-β 500 U/ml, IFN-γ 100 U/ml, IL-1-α 1 ng/ml, EGF 25 ng/ml, TGF-β 2 ng/ml, poly(I).poly(C) 50 ug/ml, TPA 100 ng/ml, A23187 1 uM, forskolin 10 uM, dBcAMP 100 uM, IBMX 100 uM
Description: as §1, §2, §3, §4

TSG-8 (MCAF) mRNA = experiment: as above; format: cell-based, human; conditions: growth arrested FS-4 cells, 2 h; TNF 20 ng/ml, CHX 10 ug/ml, IFN-β 500 U/ml, IFN-γ 100 U/ml, IL-1-α 1 ng/ml, EGF 25 ng/ml, TGF-β 2 ng/ml, poly(I).poly(C) 50 ug/ml, TPA 100 ng/ml, A23187 1 uM, forskolin 10 uM, dBcAMP 100 uM, IBMX 100 uM
Description: as §1, §2, §3, §4

TSG-37 (MT-II) mRNA = experiment: as above; format: cell-based, human; conditions: growth arrested FS-4 cells, 2 h; TNF 20 ng/ml, CHX 10 ug/ml, IFN-β 500 U/ml, IFN-γ 100 U/ml, IL-1-α 1 ng/ml, EGF 25 ng/ml, TGF-β 2 ng/ml, poly(I).poly(C) 50 ug/ml, TPA 100 ng/ml, A23187 1 uM, forskolin 10 uM, dBcAMP 100 uM, IBMX 100 uM
Description: as §1, §2, §3, §4

[1] = tested on: TSG-21 (Collagenase) mRNA; experiment: as above; format: cell-based, human; conditions: growth arrested FS-4 cells, 16 h of treatment; TNF 20 ng/ml, CHX 10 ug/ml, IFN-β 500 U/ml, IFN-γ 100 U/ml, IL-1-α 1 ng/ml, EGF 25 ng/ml, TGF-β 2 ng/ml, poly(I).poly(C) 50 ug/ml, TPA 100 ng/ml, forskolin 10 uM, IBMX 100 uM
Description: as §1, §2, §3, §4

[2] = tested on: TSG-27 (Stromelysin) mRNA; experiment: as above; format: cell-based, human; conditions: growth arrested FS-4 cells, 16 h of treatment; TNF 20 ng/ml, CHX 10 ug/ml, IFN-β 500 U/ml, IFN-γ 100 U/ml, IL-1-α 1 ng/ml, EGF 25 ng/ml, TGF-β 2 ng/ml, poly(I).poly(C) 50 ug/ml, TPA 100 ng/ml, forskolin 10 uM, IBMX 100 uM
Description: as §1, §2, §3, §4

[3] = Stability of the TSG-6/IαI complex to denaturants and enzymes; format: physicochemical
Description: 100 μL of a TN-5 B insect cell culture supernatant containing TSG-6 protein was incubated with 100 μL of a 1:50 dilution of human serum for 1 hr. at 37° C. Thereafter, one 100-μL aliquot was mixed with 2 mL of 8 M urea and concentrated in a Centricon-10 unit to 100 μL (lane 2); the other aliquot was left untreated (lane 1). The reaction mixtures were then separated by SDS-PAGE and subjected to Western blot analysis with anti-TSG-6 antibody.
Partially purified IαI was incubated in the absence (lane 1) or presence of purified TSG-6 protein (lanes 3-5) at 37° C. for 1 hr. The sample containing both IαI and TSG-6 protein was divided into aliquots and further incubated without enzyme (lane 3), with 800 milliunits of chondroitin sulfate ABC lyase (lane 4), or with 1.6 units of hyaluronidase (lane 5). Lane 2 is a TSG-6 control without IαI. The reaction mixtures were separated by SDS-PAGE and analyzed by Western blotting with anti-TSG-6 antibody.
The Stable Crosslink in the TSG-6/IαI COmplex is Provided by a Gylcosaminoglycan Chain. The stability of the 120 kDa TSG-6/IαI complex during SDS-PAGE under reducing conditions raises the question of the nature of the interaction between TSG-6 and the other components of the complex.
It is known that the three polypeptide chains of IαI are cross-linked by a chondroitin sulfate chain (Enghild et al, J. Biol. Chem. 264:15975-15981 (1989); Jenssen et al, FEBS Lett. 230:195-200 (1988); Balduyck et al, Biol. Chem. Hoppe-Seyler 370:329-336 (1989). It has been shown that bikunin, HC2 of IαLI, and HC3 of pre-α-inhibitor (PαI) are covalently bound to chondroitin 4-sulfate (Enghild et al, J. Biol. Chem. 264:15975-15981 (1989); J. Bio. Chem. 266:747-751 (1991); J. Biol. Chem. 268:8711-8716 (1993). To determine if cross-linking via chondroitin sulfate is also required for the stability of the TSG-6/IαI complex, purified TSG-6 protein and IαI were first incubated together to allow the formation of the complex and then treated with chondroitin sulfate ABC lyase from Proteus vulgaris or hyaluronidase from Streptomyces hyalurolyticus.

Row | Compound | Relative Increase in mRNA Level TSG-12 (TSG-12 mRNA) | Relative Increase in mRNA Level TSG-6 (TSG-6 mRNA) | Relative Increase in mRNA Level TSG-14 (TSG-14 mRNA) | Relative Increase in mRNA Level TSG-1 (IL-8) (TSG-1 (IL-8) mRNA) | Relative Increase in mRNA Level TSG-8 (MCAF) (TSG-8 (MCAF) mRNA) | Relative Increase in mRNA Level TSG-37 (MT-II) (TSG-37 (MT-II) mRNA) | Relative Increase in mRNA Level TSG-21 (Collagenase) [1] | Relative Increase in mRNA Level TSG-27 (Stromelysin) [2] | stability of the 120-kDa complex to 8 M urea ([3]; 8 M urea added before SDS-PAGE) | stability of the complex to boiling in 2% SDS and 5% β-mercaptoethanol ([3]; SDS-PAGE under reducing conditions) | effect of chondroitin sulfate ABC lyase on the complex ([3]; preformed complex treated with chondroitin sulfate ABC lyase from Proteus vulgaris) | effect of hyaluronidase on the complex ([3]; preformed complex treated with hyaluronidase from Streptomyces hyalurolyticus) | stability of the complex to 8 M guanidine hydrochloride ([3]; treatment with 8 M guanidine hydrochloride, Western blot)
1 | CNc1ccc2oc(C[C@H]3O[C@@]4(CC[C@H]3C)O[C@H]([C@H](C)C(=O)c3ccc[nH]3)[C@H](C)C[C@H]4C)nc2c1C(=O)O [A23187] | ++ | + | 0 | + | ++ | 0 | – | – | – | – | – | – | –
2 | C[C@@H]1C[C@@H]([C@H](O)CC2CC(=O)NC(=O)C2)C(=O)[C@@H](C)C1 [CHX, cycloheximide] | +++ | 0 | + | 0 | + | 0 | 0 | 0 | – | – | – | – | –
3 | C=C[C@@]1(C)CC(=O)[C@]2(O)[C@@]3(C)[C@@H](O)CCC(C)(C)[C@@H]3[C@H](O)[C@H](OC(C)=O)[C@@]2(C)O1 [Forskolin, forskolin] | 0 | – | 0 | 0 | 0 | 0 | 0 | 0 | – | – | – | – | –
4 | CCCCCCCCCCCCCC(=O)O[C@@H]1[C@@H](C)[C@@]2(O)[C@@H](C=C(CO)C[C@]3(O)C(=O)C(C)=C[C@@H]23)[C@@H]2C(C)(C)[C@]12OC(C)=O [TPA, 12-O-tetradecanoylphorbol 13-acetate] | ++ | + | + | + | ++ | + | ++++ | ++++ | – | – | – | – | –
5 | CCCC(=O)Nc1ncnc2c1ncn2[C@@H]1O[C@@H]2COP(=O)(O)O[C@H]2[C@H]1OC(=O)CCC [dBcAMP, N^6-2′-O-dibutyl adenosine cyclic 3′,5′-monophosphate] | + | 0 | 0 | 0 | + | – | – | – | – | – | – | – | –
6 | EGF: Epidermal growth factor | + | 0 | + | 0 | + | + | ++ | ++ | – | – | – | – | –
7 | IFN-γ: E. coli-derived human gamma interferon | + | 0 | 0 | 0 | ++ | 0 | 0 | 0 | – | – | – | – | –
8 | PDGF | + | 0 | + | 0 | + | 0 | 0 | 0 | – | – | – | – | –
9 | TGF-β | 0 | 0 | 0 | 0 | – | 0 | 0 | 0 | – | – | – | – | –
10 | TSG-6/IαI complex: stable 120 kDa complex containing TSG-6 protein, bikunin and HC2 of IαI | – | – | – | – | – | – | – | – | did not affect | resistance | complete disappearance of the complex | no effect | still detectable
